The numbers were not newly measured in US20220401317A1, “HYPOCHLORITE COMPOSITION AND SYSTEM AND METHOD FOR PREPARING A HYPOCHLORITE COMPOSITION AND USE OF THE SAME” (KONINKLIJKE PHILIPS N.V., priority 2019, published 2022), which cites them from elsewhere.

For `OCl` [hypochloric acid], the pKa (in general, the pH at which an ionisable group is half protonated) is recorded as 7.53.
